Target: T1, human vasopressin V1a receptor subtype (Homo sapiens, UniProt P37288)
T1 construct: host or cells: CHO cells (pZeoSV vector for the Thibonnier line)
Test: Vasopressin binding in Chinese Hamster Ovary cell membranes expressing human vasopressin V1a subtype receptors
Conditions: 100 nM, CHO cell membranes, [3H]Manning ligand, values without parentheses
Procedure, shortened: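 Displacement of [3H]Manning ligand (8 nM working solution) from human V1a receptors in CHO cell membranes, 25–50 μg protein per well. Incubation ran 60 min at room temperature in 50 mM Tris-HCl pH 7.4 with protease inhibitors, followed by filtration and scintillation counting. Results are given as IC50 or percent inhibition.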

T1 sequence (P37288 whole entry): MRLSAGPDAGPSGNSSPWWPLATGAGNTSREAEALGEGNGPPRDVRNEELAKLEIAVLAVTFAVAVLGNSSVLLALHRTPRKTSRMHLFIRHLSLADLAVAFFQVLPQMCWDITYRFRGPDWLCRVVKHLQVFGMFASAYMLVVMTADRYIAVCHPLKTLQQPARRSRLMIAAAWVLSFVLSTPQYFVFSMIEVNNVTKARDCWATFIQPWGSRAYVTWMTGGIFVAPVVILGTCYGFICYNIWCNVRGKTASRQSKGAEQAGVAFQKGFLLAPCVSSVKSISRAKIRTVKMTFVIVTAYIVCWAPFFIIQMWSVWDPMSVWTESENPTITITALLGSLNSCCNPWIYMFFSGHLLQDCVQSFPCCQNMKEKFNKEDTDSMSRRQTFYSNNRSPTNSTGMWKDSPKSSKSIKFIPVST

| SMILES | inhibition at 0.1 µM [%] |
| --- | --- |
| COc1ccccc1-c1ccc(C(=O)N2Cc3ccc(C(=O)N[C@@H](Cc4c[nH]cn4)C(N)=O)n3Cc3ccccc32)cc1 [Example 285, N-[(1S)-2-Amino-1-(1H-imidazol-4-ylmethyl)-2-oxoethyl]-10-[(2′-methoxy[1,1′-biphenyl]-4-yl)carbonyl]-10,11-dihydro-5H-pyrrolo[2,1-c][1,4]benzodiazepine-3-carboxamide] | 38 |
| COc1ccccc1-c1ccc(C(=O)N2Cc3ccc(C(=O)n4ccnc4)n3Cc3ccccc32)cc1OC [Example 293, {10-[(2,2′-Dimethoxy[1,1′-biphenyl]-4-yl)carbonyl]-10,11-dihydro-5H-pyrrolo[2,1-c][1,4]benzodiazepin-3-yl}(1H-imidazol-1-yl)methanone] | 2 |
| COc1cc(C(=O)N2Cc3ccc(C(=O)N(C)CCN(C)C)n3Cc3ccccc32)ccc1-n1c(C)ccc1C [Example 309, N-[2-(Dimethylamino)ethyl]-10-[4-(2,5-dimethyl-1H-pyrrol-1-yl)-3-methoxybenzoyl]-N-methyl-10,11-dihydro-5H-pyrrolo[2,1-c][1,4]benzodiazepine-3-carboxamide] | 11 |
| COc1cccc(-c2ccc(C(=O)N3Cc4ccc(C(=O)NCCCN(C)C)n4Cc4ccccc43)cc2C)c1 [Example 74, N-[3-(Dimethylamino)propyl]-10-[(3′-methoxy-2-methyl[1,1′-biphenyl]-4-yl)carbonyl]-10,11-dihydro-5H-pyrrolo[2,1-c][1,4]benzodiazepine-3-carboxamide] | 12 |
| COc1ccccc1-c1ccc(C(=O)N2Cc3ccc(C(=O)N4CCN(CCCN(C)C)CC4)n3Cc3ccccc32)cc1OC [Example 254, {10-[(2,2′-Dimethoxy[1,1′-biphenyl]-4-yl)carbonyl]-10,11-dihydro-5H-pyrrolo[2,1-c][1,4]benzodiazepin-3-yl}{4-[3-(dimethylamino)propyl]-1-piperazinyl}methanone] | 7 |
| CN(C)CCCN1CCN(C(=O)c2ccc3n2Cc2ccccc2N(C(=O)c2ccc(-c4cccc5ccccc45)cc2Cl)C3)CC1 [Example 256, {10-[2-Chloro-4-(1-naphthyl)benzoyl]-10,11-dihydro-5H-pyrrolo[2,1-c][1,4]benzodiazepin-3-yl}{4-[3-(dimethylamino)propyl]-1-piperazinyl}methanone] | 7 |
| Cc1ccccc1-c1ccc(C(=O)N2Cc3ccc(C(=O)N4CCCN(C)CC4)n3Cc3ccccc32)cc1 [Example 65, {10-[(2′-Methyl[1,1′-biphenyl]-4-yl)carbonyl]-10,11-dihydro-5H-pyrrolo[2,1-c][1,4]benzodiazepin-3-yl}(4-methyl-1,4-diazepan-1-yl)methanone] | 40 |
| CN1CCN(C(=O)c2ccc3n2Cc2ccccc2N(C(=O)c2ccc(-c4cccc5ccccc45)cc2Cl)C3)CC1 [Example 58, {10-[2-Chloro-4-(1-naphthyl)benzoyl]-10,11-dihydro-5H-pyrrolo[2,1-c][1,4]benzodiazepin-3-yl}(4-methyl-1-piperazinyl)methanone] | 5 |
| COc1cccc(-c2cc(OC)c(C(=O)N3Cc4ccc(C(=O)N5CCCN(C)CC5)n4Cc4ccccc43)cc2Cl)c1 [Example 67, {10-[(6-Chloro-3,3′-dimethoxy[1,1′-biphenyl]-4-yl)carbonyl]-10,11-dihydro-5H-pyrrolo[2,1-c][1,4]benzodiazepin-3-yl}(4-methyl-1,4-diazepan-1-yl)methanone] | -4 |
| COc1ccccc1-c1ccc(C(=O)N2Cc3ccc(C(=O)N[C@@H](CCCCNC(=O)OC(C)(C)C)C(N)=O)n3Cc3ccccc32)cc1OC [Example 303, tert-Butyl (5S)-6-amino-5-[({10-[(2,2′-dimethoxy[1,1′-biphenyl]-4-yl)carbonyl]-10,11-dihydro-5H-pyrrolo[2,1-c][1,4]benzodiazepin-3-yl}carbonyl)amino]-6-oxohexylcarbamate] | -4 |
| COc1ccccc1-c1ccc(C(=O)N2Cc3ccc(C(=O)NCCCN(C)C)n3Cc3ccccc32)cc1C [Example 72, N-[3-(Dimethylamino)propyl]-10-[(2′-methoxy-2-methyl[1,1′-biphenyl]-4-yl)carbonyl]-10,11-dihydro-5H-pyrrolo[2,1-c][1,4]benzodiazepine-3-carboxamide] | 8 |
| COc1cc(C(=O)N2Cc3ccc(C(=O)N4CCN(C(C)C)CC4)n3Cc3ccccc32)ccc1-n1c(C)ccc1C [Example 319, {10-[4-(2,5-Dimethyl-1H-pyrrol-1-yl)-3-methoxybenzoyl]-10,11-dihydro-5H-pyrrolo[2,1-c][1,4]benzodiazepin-3-yl}(4-isopropyl-1-piperazinyl)methanone] | 9 |
| COc1ccccc1-c1ccc(C(=O)N2Cc3ccc(C(=O)N4CCCN(C)CC4)n3Cc3ccccc32)cc1OC [Example 69, {10-[(2,2′-Dimethoxy[1,1′-biphenyl]-4-yl)carbonyl]-10,11-dihydro-5H-pyrrolo[2,1-c][1,4]benzodiazepin-3-yl}(4-methyl-1,4-diazepan-1-yl)methanone] | 8 |
| COc1cc(-c2ccccc2C)c(Cl)cc1C(=O)N1Cc2ccc(C(=O)N3CCN(CCCN(C)C)CC3)n2Cc2ccccc21 [Example 251, {10-[(6-Chloro-3-methoxy-2′-methyl[1,1′-biphenyl]-4-yl)carbonyl]-10,11-dihydro-5H-pyrrolo[2,1-c][1,4]benzodiazepin-3-yl}{4-[3-(dimethylamino)propyl]-1-piperazinyl}methanone] | 6 |
| COc1cc(C(=O)N2Cc3ccc(C(=O)N4CCN(CCCN(C)C)CC4)n3Cc3ccccc32)ccc1-c1ccccc1C [Example 250, {4-[3-(Dimethylamino)propyl]-1-piperazinyl}{10-[(2-methoxy-2′-methyl[1,1′-biphenyl]-4-yl)carbonyl]-10,11-dihydro-5H-pyrrolo[2,1-c][1,4]benzodiazepin-3-yl}methanone] | 53 |
| COc1cc(C(=O)N2Cc3ccc(C(=O)N4CCN(CCN5CCOCC5)CC4)n3Cc3ccccc32)ccc1-n1c(C)ccc1C [Example 317, {10-[4-(2,5-Dimethyl-1H-pyrrol-1-yl)-3-methoxybenzoyl]-10,11-dihydro-5H-pyrrolo[2,1-c][1,4]benzodiazepin-3-yl}{4-[2-(4-morpholinyl)ethyl]-1-piperazinyl}methanone] | 10 |
| Cc1ccccc1-c1ccc(C(=O)N2Cc3ccc(C(=O)N4CCN(CCCN(C)C)CC4)n3Cc3ccccc32)cc1 [Example 249, {4-[3-(Dimethylamino)propyl]-1-piperazinyl}{10-[(2′-methyl[1,1′-biphenyl]-4-yl)carbonyl]-10,11-dihydro-5H-pyrrolo[2,1-c][1,4]benzodiazepin-3-yl}methanone] | 12 |
| Cc1cc(C(=O)N2Cc3cccn3Cc3ncccc32)ccc1-c1ccccc1C(F)(F)F [Example 323F, (2-Methyl-2′-trifluoromethyl-[1,1′-biphenyl]-4-yl)-(4H,10H-3a,5,9-triaza-benzo[f]azulen-9-yl)-methanone] | 2 |
| COc1cc(C(=O)N2Cc3ccc(C(=O)NCCN4CCCCC4)n3Cc3ccccc32)ccc1-n1c(C)ccc1C [Example 314, 10-[4-(2,5-Dimethyl-1H-pyrrol-1-yl)-3-methoxybenzoyl]-N-[2-(1-piperidinyl)ethyl]-10,11-dihydro-5H-pyrrolo[2,1-c][1,4]benzodiazepine-3-carboxamide] | 6 |
| COc1cc(C(=O)N2Cc3ccc(C(=O)NCCCN(C)C)n3Cc3ccccc32)ccc1-c1ccccc1C [Example 77, N-[3-(Dimethylamino)propyl]-10-[(2-methoxy-2′-methyl[1,1′-biphenyl]-4-yl)carbonyl]-10,11-dihydro-5H-pyrrolo[2,1-c][1,4]benzodiazepine-3-carboxamide] | 44 |
| Cc1cc(C(=O)N2Cc3ccc(C(=O)N[C@H]4CN5CCC4CC5)n3Cc3ccccc32)ccc1-c1ccccc1C(F)(F)F [Example 301, N-[(3R)-1-Azabicyclo[2.2.2]oct-3-yl]-10-{[2-methyl-2′-(trifluoromethyl)[1,1′-biphenyl]-4-yl]carbonyl}-10,11-dihydro-5H-pyrrolo[2,1-c][1,4]benzodiazepine-3-carboxamide] | 1 |
| COc1cc(C(=O)N2Cc3ccc(C(=O)N4CCCN(C)CC4)n3Cc3ccccc32)ccc1-c1cccc2ccccc12 [Example 68, {10-[3-Methoxy-4-(1-naphthyl)benzoyl]-10,11-dihydro-5H-pyrrolo[2,1-c][1,4]benzodiazepin-3-yl}(4-methyl-1,4-diazepan-1-yl)methanone] | 9 |
| COc1ccccc1-c1ccc(C(=O)N2Cc3ccc(C(=O)N[C@@H](Cc4c[nH]cn4)C(N)=O)n3Cc3ccccc32)cc1OC [Example 286, N-[(1S)-2-Amino-1-(1H-imidazol-4-ylmethyl)-2-oxoethyl]-10-[(2,2′-dimethoxy[1,1′-biphenyl]-4-yl)carbonyl]-10,11-dihydro-5H-pyrrolo[2,1-c][1,4]benzodiazepine-3-carboxamide] | 8 |
| COc1cccc(-c2ccc(C(=O)N3Cc4ccc(C(=O)N5CCCN(C)CC5)n4Cc4ccccc43)cc2OC)c1 [Example 70, {10-[(2,3′-Dimethoxy[1,1′-biphenyl]-4-yl)carbonyl]-10,11-dihydro-5H-pyrrolo[2,1-c][1,4]benzodiazepin-3-yl}(4-methyl-1,4-diazepan-1-yl)methanone] | 19 |
| COc1cc(C(=O)N2Cc3ccc(C(=O)N4CCN(C)CC4)n3Cc3ccccc32)ccc1-c1ccccc1C [Example 53, {10-[(2-Methoxy-2′-methyl[1,1′-biphenyl]-4-yl)carbonyl]-10,11-dihydro-5H-pyrrolo[2,1-c][1,4]benzodiazepin-3-yl}(4-methyl-1-piperazinyl)methanone] | 38 |
| COc1ccccc1-c1ccc(C(=O)N2Cc3ccc(C(=O)N[C@H]4CN5CCC4CC5)n3Cc3ccccc32)cc1 [Example 296, N-[(3R)-1-Azabicyclo[2.2.2]oct-3-yl]-10-[(2′-methoxy[1,1′-biphenyl]-4-yl)carbonyl]-10,11-dihydro-5H-pyrrolo[2,1-c][1,4]benzodiazepine-3-carboxamide] | 31 |
